{
  "source": "paper PMC8963331",
  "about": "(Toxicological Sciences, 2022)",
  "key": {"[1]": {"experiment": "Rat repeat-dose toxicity studies: plasma toxicokinetics", "format": "in vivo", "conditions": "for AUC(0-t) / Cmax: plasma, po; for AUC(0-t) / Cmax / Mean Cave: last day of dosing; for Cmax: Mean Cmax"}, "humans": {"test_system": "humans", "conditions": "QD, ref Sandborn et al., 2020, cited from earlier work"}, "[2]": {"experiment": "Rabbit EFD study: maternal and fetal plasma toxicokinetics", "format": "in vivo", "conditions": "maternal rabbit"}},
  "note": "Where two headings read alike, the source gives them in different places.",
  "data": [
    {"smiles": "Cc1cc(Nc2cc3ncccc3c(N[C@@H]3C[C@H]4CC[C@@H](C3)N4CCC#N)n2)n[nH]1", "note": "[izencitinib, Izencitinib]", "values": [
      {"measurement": "AUC(0-t)", "setting": "[1]; female, Sprague-Dawley (Crl:CD), rat, 30 mg/kg/day, Mean AUC0–24, rat female, 30 mg/kg/day oral, 26 weeks", "value": 16.7, "unit": "ng·h/mL"},
      {"measurement": "Cmax", "setting": "[1]; female, Sprague-Dawley (Crl:CD), rat, 30 mg/kg/day, rat female, 30 mg/kg/day oral, 26 weeks", "value": 6.02, "unit": "ng/mL"},
      {"measurement": "AUC(0-t)", "setting": "[1]; female, Sprague-Dawley (Crl:CD), rat, 100 mg/kg/day, Mean AUC0–24, rat female, 100 mg/kg/day oral, 26 weeks", "value": 127, "unit": "ng·h/mL"},
      {"measurement": "Cmax", "setting": "[1]; female, Sprague-Dawley (Crl:CD), rat, 100 mg/kg/day, rat female, 100 mg/kg/day oral, 26 weeks", "value": 32.5, "unit": "ng/mL"},
      {"measurement": "AUC(0-t)", "setting": "[1]; female, Sprague-Dawley (Crl:CD), rat, 1000 mg/kg/day, Mean AUC0–24, rat female, 1000 mg/kg/day oral, 26 weeks", "value": 453, "unit": "ng·h/mL"},
      {"measurement": "Cmax", "setting": "[1]; female, Sprague-Dawley (Crl:CD), rat, 1000 mg/kg/day, rat female, 1000 mg/kg/day oral, 26 weeks", "value": 96.3, "unit": "ng/mL"},
      {"measurement": "AUC(0-t)", "setting": "[1]; female, Sprague-Dawley, rat, 30 mg/kg/day, Mean AUC0–24, rat female, 30 mg/kg/day oral, 4 weeks", "value": 25.7, "unit": "ng·h/mL"},
      {"measurement": "AUC(0-t)", "setting": "[1]; female, Sprague-Dawley, rat, 30 mg/kg/day, Mean AUC0–24, rat female, 30 mg/kg/day oral, 13 weeks", "value": 54.6, "unit": "ng·h/mL"},
      {"measurement": "AUC(0-t)", "setting": "[1]; female, Sprague-Dawley, rat, 100 mg/kg/day, Mean AUC0–24, rat female, 100 mg/kg/day oral, 4 weeks", "value": 70.5, "unit": "ng·h/mL"},
      {"measurement": "AUC(0-t)", "setting": "[1]; female, Sprague-Dawley, rat, 100 mg/kg/day, Mean AUC0–24, rat female, 100 mg/kg/day oral, 13 weeks", "value": 227, "unit": "ng·h/mL"},
      {"measurement": "AUC(0-t)", "setting": "[1]; female, Sprague-Dawley, rat, 1000 mg/kg/day, Mean AUC0–24, rat female, 1000 mg/kg/day oral, 4 weeks", "value": 384, "unit": "ng·h/mL"},
      {"measurement": "AUC(0-t)", "setting": "[1]; male, Sprague-Dawley (Crl:CD), rat, 30 mg/kg/day, Mean AUC0–24, rat male, 30 mg/kg/day oral, 26 weeks", "value": 34.6, "unit": "ng·h/mL"},
      {"measurement": "Cmax", "setting": "[1]; male, Sprague-Dawley (Crl:CD), rat, 30 mg/kg/day, rat male, 30 mg/kg/day oral, 26 weeks", "value": 4.52, "unit": "ng/mL"},
      {"measurement": "AUC(0-t)", "setting": "[1]; male, Sprague-Dawley (Crl:CD), rat, 100 mg/kg/day, Mean AUC0–24, rat male, 100 mg/kg/day oral, 26 weeks", "value": 95.7, "unit": "ng·h/mL"},
      {"measurement": "Cmax", "setting": "[1]; male, Sprague-Dawley (Crl:CD), rat, 100 mg/kg/day, rat male, 100 mg/kg/day oral, 26 weeks", "value": 15.8, "unit": "ng/mL"},
      {"measurement": "AUC(0-t)", "setting": "[1]; male, Sprague-Dawley (Crl:CD), rat, 1000 mg/kg/day, Mean AUC0–24, rat male, 1000 mg/kg/day oral, 26 weeks", "value": 384, "unit": "ng·h/mL"},
      {"measurement": "Cmax", "setting": "[1]; male, Sprague-Dawley (Crl:CD), rat, 1000 mg/kg/day, rat male, 1000 mg/kg/day oral, 26 weeks", "value": 60.6, "unit": "ng/mL"},
      {"measurement": "AUC(0-t)", "setting": "[1]; male, Sprague-Dawley, rat, 30 mg/kg/day, Mean AUC0–24, rat male, 30 mg/kg/day oral, 4 weeks", "value": 23.4, "unit": "ng·h/mL"},
      {"measurement": "AUC(0-t)", "setting": "[1]; male, Sprague-Dawley, rat, 30 mg/kg/day, Mean AUC0–24, rat male, 30 mg/kg/day oral, 13 weeks", "value": 58.2, "unit": "ng·h/mL"},
      {"measurement": "AUC(0-t)", "setting": "[1]; male, Sprague-Dawley, rat, 100 mg/kg/day, Mean AUC0–24, rat male, 100 mg/kg/day oral, 4 weeks", "value": 71.3, "unit": "ng·h/mL"},
      {"measurement": "AUC(0-t)", "setting": "[1]; male, Sprague-Dawley, rat, 100 mg/kg/day, Mean AUC0–24, rat male, 100 mg/kg/day oral, 13 weeks", "value": 131, "unit": "ng·h/mL"},
      {"measurement": "AUC(0-t)", "setting": "[1]; male, Sprague-Dawley, rat, 1000 mg/kg/day, Mean AUC0–24, rat male, 1000 mg/kg/day oral, 4 weeks", "value": 335, "unit": "ng·h/mL"},
      {"measurement": "AUC(0-t)", "setting": "[1]; male, Sprague-Dawley, rat, 1000 mg/kg/day, Mean AUC0–24, rat male, 1000 mg/kg/day oral, 13 weeks", "value": 452, "unit": "ng·h/mL"},
      {"measurement": "nonclinical:clinical systemic AUC margin at the NOAEL", "setting": "[1]; rat 26-week study, 1000 mg/kg/day, vs human 300 mg QD", "value": 8, "unit": "fold"},
      {"measurement": "Mean Cave", "setting": "[1]; rat female, 30 mg/kg/day oral, 4 weeks", "value": 1.07, "unit": "ng/mL"},
      {"measurement": "Mean Cave", "setting": "[1]; rat female, 30 mg/kg/day oral, 13 weeks", "value": 2.28, "unit": "ng/mL"},
      {"measurement": "Mean Cave", "setting": "[1]; rat female, 30 mg/kg/day oral, 26 weeks", "value": 0.700, "unit": "ng/mL"},
      {"measurement": "Mean Cave", "setting": "[1]; rat female, 100 mg/kg/day oral, 4 weeks", "value": 2.94, "unit": "ng/mL"},
      {"measurement": "Mean Cave", "setting": "[1]; rat female, 100 mg/kg/day oral, 13 weeks", "value": 9.46, "unit": "ng/mL"},
      {"measurement": "Mean Cave", "setting": "[1]; rat female, 100 mg/kg/day oral, 26 weeks", "value": 5.29, "unit": "ng/mL"},
      {"measurement": "Mean Cave", "setting": "[1]; rat female, 1000 mg/kg/day oral, 4 weeks", "value": 16.0, "unit": "ng/mL"},
      {"measurement": "Mean Cave", "setting": "[1]; rat female, 1000 mg/kg/day oral, 13 weeks", "value": 63.8, "unit": "ng/mL"},
      {"measurement": "Mean Cave", "setting": "[1]; rat female, 1000 mg/kg/day oral, 26 weeks", "value": 18.9, "unit": "ng/mL"},
      {"measurement": "Mean Cave", "setting": "[1]; rat male, 30 mg/kg/day oral, 4 weeks", "value": 0.975, "unit": "ng/mL"},
      {"measurement": "Mean Cave", "setting": "[1]; rat male, 30 mg/kg/day oral, 13 weeks", "value": 2.43, "unit": "ng/mL"},
      {"measurement": "Mean Cave", "setting": "[1]; rat male, 30 mg/kg/day oral, 26 weeks", "value": 1.44, "unit": "ng/mL"},
      {"measurement": "Mean Cave", "setting": "[1]; rat male, 100 mg/kg/day oral, 4 weeks", "value": 2.97, "unit": "ng/mL"},
      {"measurement": "Mean Cave", "setting": "[1]; rat male, 100 mg/kg/day oral, 13 weeks", "value": 5.46, "unit": "ng/mL"},
      {"measurement": "Mean Cave", "setting": "[1]; rat male, 100 mg/kg/day oral, 26 weeks", "value": 3.99, "unit": "ng/mL"},
      {"measurement": "Mean Cave", "setting": "[1]; rat male, 1000 mg/kg/day oral, 4 weeks", "value": 14.0, "unit": "ng/mL"},
      {"measurement": "Mean Cave", "setting": "[1]; rat male, 1000 mg/kg/day oral, 13 weeks", "value": 18.8, "unit": "ng/mL"},
      {"measurement": "Mean Cave", "setting": "[1]; rat male, 1000 mg/kg/day oral, 26 weeks", "value": 16.0, "unit": "ng/mL"},
      {"measurement": "plasma Cave:protein-corrected JAK IC50 ratio", "setting": "[1]; rat, 30 mg/kg/day", "value": "< 1", "unit": "×"},
      {"measurement": "plasma Cave:uncorrected JAK IC50 ratio", "setting": "[1]; rat, 30 mg/kg/day", "value": "< 1", "unit": "×"},
      {"measurement": "plasma concentrations versus uncorrected human JAK IC50 threshold", "setting": "[1]; rat, 100 mg/kg/day", "value": "only briefly rose above"},
      {"measurement": "plasma Cave:protein-corrected JAK IC50 ratio", "setting": "[1]; rat, 1000 mg/kg/day", "value": "< 1"},
      {"measurement": "plasma Cave:uncorrected JAK IC50 ratio", "setting": "[1]; rat, 1000 mg/kg/day", "value": "1–3 ×"},
      {"measurement": "dose up to which well tolerated", "setting": "humans; phase 1b, ulcerative colitis patients", "value": 270, "unit": "mg"},
      {"measurement": "dose up to which well tolerated", "setting": "humans; phase 1 single ascending dose", "value": 1000, "unit": "mg"},
      {"measurement": "plasma Cave:protein-corrected JAK IC50 ratio", "setting": "[2]; 10 mg/kg/day", "value": "< 1", "unit": "×"},
      {"measurement": "plasma Cave:uncorrected JAK IC50 ratio", "setting": "[2]; 10 mg/kg/day", "value": "< 1", "unit": "×"},
      {"measurement": "Mean Cave", "setting": "[2]; GD 7, 10 mg/kg/day oral", "value": 0.365, "unit": "ng/mL"},
      {"measurement": "Mean Cave", "setting": "[2]; GD 7, 30 mg/kg/day oral", "value": 3.28, "unit": "ng/mL"},
      {"measurement": "Mean Cave", "setting": "[2]; GD 7, 60 mg/kg/day oral", "value": 21.8, "unit": "ng/mL"},
      {"measurement": "Mean Cave", "setting": "[2]; GD 19, 10 mg/kg/day oral", "value": 0.754, "unit": "ng/mL"},
      {"measurement": "plasma Cave:uncorrected JAK IC50 ratio", "setting": "[2]; GD 19, 30 mg/kg/day", "value": 1, "unit": "×"},
      {"measurement": "Mean Cave", "setting": "[2]; GD 19, 30 mg/kg/day oral", "value": 18.7, "unit": "ng/mL"},
      {"measurement": "plasma Cave:uncorrected JAK IC50 ratio", "setting": "[2]; GD 19, 60 mg/kg/day", "value": 6, "unit": "×"},
      {"measurement": "Mean Cave", "setting": "[2]; GD 19, 60 mg/kg/day oral", "value": 76.7, "unit": "ng/mL"},
      {"measurement": "plasma Cave:protein-corrected JAK IC50 ratios", "setting": "[2]; GD 19, 30 and 60 mg/kg/day", "value": "< 1", "unit": "×"}
    ]}
  ]
}
